Assay results: ChEMBL document CHEMBL5241112, “Insights into the recent progress in the medicinal chemistry of pyranopyrimidine analogs” (RSC Med Chem, 2022)
Converted amounts (≈) assume the structure as drawn.

What was measured:
[1] = tested on: Aspergillus ochraceus; experiment: Antifungal activity against Aspergillus ochraceus assessed as diameter of inhibition zone by disc diffusion method; assay type: functional
[2] = tested on: Penicillium chrysogenum; experiment: Antifungal activity against Penicillium chrysogenum assessed as diameter of inhibition zone by disc diffusion method; assay type: functional
[3] = tested on: Aspergillus ochraceus; experiment: Antifungal activity against Aspergillus ochraceus AUCC-230 assessed as diameter of inhibition zone incubated for 24 hrs by disc diffusion method; assay type: functional
[4] = tested on: Penicillium chrysogenum; experiment: Antifungal activity against Penicillium chrysogenum AUCC-530 assessed as diameter of inhibition zone incubated for 24 hrs by disc diffusion method; assay type: functional
[5] = tested on: Staphylococcus aureus; experiment: Antibacterial activity against Staphylococcus aureus NCIM 2654 assessed as diameter of inhibition zone incubated for 24 hrs by agar well diffusion method; assay type: functional
[6] = tested on: Candida albicans; experiment: Antifungal activity against Candida albicans assessed as diameter of inhibition zone incubated for 48 hrs by agar well diffusion method; assay type: functional
[7] = Antioxidant activity assessed as DPPH radical scavenging activity at 12 ug incubated for 30 mins by spectrophotometric analysis; assay type: functional; conditions: dose 12.0 µg
[8] = molecular target: T1, Free fatty acid receptor 3 (Homo sapiens, UniProt O14843); experiment: Agonist activity at FFA3 (unknown origin) expressed in human Flp-In-293 cells assessed as inhibition of forskolin-stimulated cAMP accumulation incubated for 30 mins by Lance cAMP assay; assay type: cell-based
T1 sequence (O14843 whole entry): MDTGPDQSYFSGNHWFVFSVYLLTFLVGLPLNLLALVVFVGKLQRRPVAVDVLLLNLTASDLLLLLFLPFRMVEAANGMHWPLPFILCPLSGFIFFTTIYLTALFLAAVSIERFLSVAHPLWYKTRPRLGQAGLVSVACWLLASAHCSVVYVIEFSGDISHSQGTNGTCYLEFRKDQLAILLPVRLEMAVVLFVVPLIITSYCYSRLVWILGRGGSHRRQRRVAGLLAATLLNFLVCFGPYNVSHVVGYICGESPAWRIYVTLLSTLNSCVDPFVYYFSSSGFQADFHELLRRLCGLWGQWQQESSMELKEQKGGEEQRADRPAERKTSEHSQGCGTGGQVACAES

[9] = tested on: Staphylococcus aureus; experiment: Antibacterial activity against Staphylococcus aureus MTCC 96 assessed as bacterial growth inhibition incubated for 24 hrs by broth microdilution method; assay type: functional
[10] = tested on: Staphylococcus aureus; experiment: Antibacterial activity against Staphylococcus aureus MLS-16 MTCC 2940 assessed as bacterial growth inhibition incubated for 24 hrs by broth microdilution method; assay type: functional
[11] = molecular target: Hydroxycarboxylic acid receptor 2 (Homo sapiens, UniProt Q8TDS4); experiment: Agonist activity at human HCA2 expressed in human Flp-In-293 cells assessed as inhibition of forskolin-stimulated cAMP accumulation incubated for 30 mins by Lance cAMP assay; assay type: cell-based
Chain of Hydroxycarboxylic acid receptor 2 (Q8TDS4 whole entry): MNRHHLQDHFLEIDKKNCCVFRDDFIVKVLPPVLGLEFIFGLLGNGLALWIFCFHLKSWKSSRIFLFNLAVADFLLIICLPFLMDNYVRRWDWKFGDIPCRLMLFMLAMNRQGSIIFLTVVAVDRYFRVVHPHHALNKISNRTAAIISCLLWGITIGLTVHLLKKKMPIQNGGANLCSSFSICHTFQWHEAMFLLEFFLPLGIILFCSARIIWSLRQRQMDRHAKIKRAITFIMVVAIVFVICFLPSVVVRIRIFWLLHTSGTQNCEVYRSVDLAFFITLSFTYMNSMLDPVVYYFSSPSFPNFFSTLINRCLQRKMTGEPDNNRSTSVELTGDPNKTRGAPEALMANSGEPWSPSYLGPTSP

[12] = tested on: Staphylococcus aureus; experiment: Antibacterial activity against Staphylococcus aureus assessed as bacterial growth inhibition by broth microdilution method; assay type: functional
[13] = tested on: Escherichia coli; experiment: Antibacterial activity against Escherichia coli assessed as bacterial growth inhibition by broth microdilution method; assay type: functional
[14] = tested on: Klebsiella pneumoniae; experiment: Antibacterial activity against Klebsiella pneumoniae assessed as bacterial growth inhibition by broth microdilution method; assay type: functional
[15] = tested on: Pseudomonas aeruginosa; experiment: Antibacterial activity against Pseudomonas aeruginosa assessed as bacterial growth inhibition by broth microdilution method; assay type: functional
[16] = tested on: Aspergillus flavus; experiment: Antifungal activity against Aspergillus flavus assessed as fungal growth inhibition by broth microdilution method; assay type: functional
[17] = tested on: Candida albicans; experiment: Antifungal activity against Candida albicans assessed as fungal growth inhibition by broth microdilution method; assay type: functional
[18] = tested on: Klebsiella pneumoniae; experiment: Antimicrobial activity against Klebsiella pneumoniae ATCC 15380 assessed as diameter of inhibition zone at 20 mg/ml incubated for 24 hrs by disk diffusion method; assay type: functional; conditions: read-out: DIZ
[19] = tested on: Staphylococcus aureus; experiment: Antimicrobial activity against Staphylococcus aureus assessed as diameter of inhibition zone at 1 mg/ml incubated for 48 hrs by agar disk diffusion method; assay type: functional; conditions: read-out: DIZ
[20] = tested on: Bacillus cereus; experiment: Antimicrobial activity against Bacillus cereus assessed as diameter of inhibition zone at 1 mg/ml incubated for 48 hrs by agar disk diffusion method; assay type: functional; conditions: read-out: DIZ
[21] = tested on: Escherichia coli; experiment: Antimicrobial activity against Escherichia coli assessed as diameter of inhibition zone at 1 mg/ml incubated for 48 hrs by agar disk diffusion method; assay type: functional; conditions: read-out: DIZ
[22] = tested on: Klebsiella pneumoniae; experiment: Antimicrobial activity against Klebsiella pneumoniae assessed as diameter of inhibition zone at 1 mg/ml incubated for 48 hrs by agar disk diffusion method; assay type: functional; conditions: read-out: DIZ
[23] = tested on: Pseudomonas aeruginosa; experiment: Antimicrobial activity against Pseudomonas aeruginosa assessed as diameter of inhibition zone at 1 mg/ml incubated for 48 hrs by agar disk diffusion method; assay type: functional; conditions: read-out: DIZ
[24] = tested on: Aspergillus niger; experiment: Antifungal activity against Aspergillus niger assessed as diameter of inhibition zone at 1 mg/ml incubated for 72 to 91 hrs by agar disk diffusion method; assay type: functional; conditions: time 72-91 hrs, read-out: DIZ
[25] = tested on: Penicillium chrysogenum; experiment: Antifungal activity against Penicillium chrysogenum assessed as diameter of inhibition zone at 1 mg/ml incubated for 72 to 91 hrs by agar disk diffusion method; assay type: functional; conditions: time 72-91 hrs, read-out: DIZ
[26] = tested on: Candida albicans; experiment: Antifungal activity against Candida albicans assessed as inhibition of fungal growth; assay type: functional
[27] = tested on: Aspergillus niger; experiment: Antifungal activity against Aspergillus niger assessed as inhibition of fungal growth; assay type: functional
[28] = tested on: Aspergillus flavus; experiment: Antifungal activity against Aspergillus flavus assessed as inhibition of fungal growth; assay type: functional
[29] = tested on: A549; experiment: Anticancer activity against human A549 cells assessed as reduction in cell viability incubated for 24 hrs by MTT assay; assay type: functional, cell-based; conditions: A549, 24 h
[30] = tested on: Mycobacterium tuberculosis; experiment: Antitubercular activity against Mycobacterium tuberculosis H37Rv assessed as bacterial growth inhibition at 250 ug/ml; assay type: functional
[31] = tested on: Mycobacterium tuberculosis; experiment: Antitubercular activity against Mycobacterium tuberculosis H37Rv assessed as bacterial growth inhibition at 100 ug/ml; assay type: functional

NYSTATIN showed an inhibition zone (IZ) [1] of 22 mm, an inhibition zone (IZ) [2] of 24 mm and an inhibition zone (IZ) [3] of 22 mm. For the same compound, the inhibition zone (IZ) [4] was 24 mm.
With `Cc1n[nH]c2c1C(c1ccc(Cl)cc1)c1c([nH]c(=O)[nH]c1=O)O2` (stereo not given) the “diameter of the inhibition zone (DIZ)” value [5] was 27 mm, the “diameter of the inhibition zone (DIZ)” value [6] was 18 mm and the Activity [7] was 58.8%.
In the case of `CCCCc1cc(=O)oc2[nH]c(=O)[nH]c(=O)c12`, the EC50 [8] is reported as 0.22 µM.
For `Cc1cc2c(c(=O)o1)C(c1ccccc1)c1c(Nc3cccc([N+](=O)[O-])c3)ncnc1O2` (stereo not given), the MIC [9] was 7.8 µg/mL (≈ 18.2 µM) and the MIC [10] was 15.6 µg/mL (≈ 36.4 µM).
Compound `CCc1cc(=O)oc2[nH]c(=S)[nH]c(=O)c12` has an EC50 [8] of 0.22 µM and an EC50 [11] of 0.051 µM.
With `Cc1cc2c(c(=O)o1)C(c1ccccc1)c1c(Nc3ccc([N+](=O)[O-])cc3)ncnc1O2` (stereo not given) the MIC [9] was 7.8 µg/mL (≈ 18.2 µM) and the MIC [10] was 15.6 µg/mL (≈ 36.4 µM).
Work on `COc1ccc(C2c3c(Nc4ccccc4)ncnc3Oc3cc(C)oc(=O)c32)cc1` (stereo not given) yielded an MIC [9] of 7.8 µg/mL (≈ 18.9 µM).
With `CCO/C=N/C1=C(C#N)C(c2cccc(OC)c2OC)c2c(n(C)c(=O)n(C)c2=O)O1` (stereo not given) the MIC [12] was 6.25 µg/mL (≈ 14.7 µM), the MIC [13] was 6.25 µg/mL (≈ 14.7 µM) and the MIC [14] was 6.25 µg/mL (≈ 14.7 µM). The MIC [15] was 6.25 µg/mL (≈ 14.7 µM), the MIC [16] was 3.12 µg/mL (≈ 7.32 µM) and the MIC [17] was 6.25 µg/mL (≈ 14.7 µM).
`Cc1ccc(C2C(C#N)=C(N)Oc3[nH]c(=O)[nH]c(=O)c32)o1` (stereo not given) gave a zone of inhibition at 20000 µg/mL [18] of 16 mm.
With `Cc1cc2c(c(=O)o1)C(c1ccc(F)cc1)c1c(Nc3ccc([N+](=O)[O-])cc3)ncnc1O2` (stereo not given) the MIC [9] was 7.8 µg/mL (≈ 17.5 µM) and the MIC [10] was 15.6 µg/mL (≈ 34.9 µM).
In the case of `Cc1n[nH]c2c1C(c1ccc([N+](=O)[O-])cc1)c1c([nH]c(=O)[nH]c1=O)O2` (stereo not given), the “diameter of the inhibition zone (DIZ)” value [5] is reported as 20 mm, the “diameter of the inhibition zone (DIZ)” value [6] is reported as 12 mm and the Activity [7] is reported as 98.4%.
In the case of `COC(=O)C1=C(N)Oc2[nH]c(=S)[nH]c(=O)c2C1c1ccc(OC)c(OC)c1` (stereo not given), the zone of inhibition at 1000 µg/mL [19] is reported as 13 mm, the zone of inhibition at 1000 µg/mL [20] is reported as 15 mm and the zone of inhibition at 1000 µg/mL [21] is reported as 16 mm. It also gave a zone of inhibition at 1000 µg/mL [22] of 14 mm, a zone of inhibition at 1000 µg/mL [23] of 12 mm and a zone of inhibition at 1000 µg/mL [24] of 0 mm. It also gave a zone of inhibition at 1000 µg/mL [25] of 12 mm.
`CCCc1cc(=O)oc2[nH]c(=S)[nH]c(=O)c12` gave an EC50 [8] of 0.22 µM and an EC50 [11] of 0.051 µM.
In the case of `CCO/C=N/C1=C(C#N)C(c2cc(OC)ccc2OC)c2c(n(C)c(=O)n(C)c2=O)O1` (stereo not given), the MIC [12] is reported as 6.25 µg/mL (≈ 14.7 µM), the MIC [13] is reported as 6.25 µg/mL (≈ 14.7 µM) and the MIC [14] is reported as 6.25 µg/mL (≈ 14.7 µM). It also gave an MIC [15] of 6.25 µg/mL (≈ 14.7 µM), an MIC [16] of 3.12 µg/mL (≈ 7.32 µM) and an MIC [17] of 3.12 µg/mL (≈ 7.32 µM).
`CCC1C(C#N)=C(N)Oc2[nH]c(=O)[nH]c(=O)c21` (stereo not given) gave an MIC [26] of 125 µg/mL (≈ 534 µM), an MIC [27] of 162 µg/mL (≈ 694 µM) and an MIC [28] of 150 µg/mL (≈ 640 µM).
Compound `CCOC(=O)C1=C(C)Oc2nc(C)n(Cc3cn(-c4ccc([N+](=O)[O-])cc4)nn3)c(=O)c2C1c1cccs1` (stereo not given) has an IC50 [29] of 1.85 µM.
`Cc1cc2c(c(=O)o1)C(c1ccccc1)c1c(Nc3ccccc3)ncnc1O2` (stereo not given) gave an MIC [10] of 15.6 µg/mL (≈ 40.7 µM).
`CO[C@H]1/C=C/O[C@@]2(C)Oc3c(C)c(O)c4c(O)c(c(/C=N/N5CCN(C)CC5)c(O)c4c3C2=O)NC(=O)/C(C)=C\C=C\[C@H](C)[C@H](O)[C@@H](C)[C@@H](O)[C@@H](C)[C@H](OC(C)=O)[C@@H]1C` [RIFAMPIN] gave an inhibition at 250 µg/mL [30] of 98% and an inhibition at 100 µg/mL [31] of 98%.
Work on `Cc1cc2c(c(=O)o1)C(c1ccc(F)cc1)c1c(Nc3ccccc3)ncnc1O2` (stereo not given) yielded an MIC [9] of 7.8 µg/mL (≈ 19.4 µM).
